Results taken from patent US6943181B2, “Use of substituted gamma-lactone compounds as pharmaceutical preparations” (Grunenthal GmbH, priority 2001, dated 2005).

Molecular target: T1, nitrogen monoxide synthase (NO synthase) (Rattus norvegicus, UniProt P29476)
T1 construct: the supernatant was then decanted off and frozen in portions; from tissue; host or cells: rat cerebellum (homogenate, 20,000 g supernatant)
Experiment: HTS-NOS assay (nitrogen monoxide synthase assay)
Type: biochemical
Settings: compound at 10 μM; enzyme preparation from rat cerebella; [3H]-arginine substrate
Description: This assay makes it possible to determine the percentage inhibition of NO synthase by a compound of the general formula I used according to the invention by measuring NOS activity on exposure to the compound. NO synthase is here mixed under suitable conditions together with radioactively labelled arginine and the particular compound of the general formula I. After termination of the NO formation reaction at a predetermined time, the quantity of unconverted arginine is directly or indirectly determined. […] This assay may be carried out at follows: • (a) Incubation of the NO synthase with labelled arginine as the substrate in a reaction vessel, • (b) Separation of the labelled arginine from the labelled citrulline optionally arising as a product of the enzymatic reaction at a time at which the concentration of citrulline is rising, • (c) Measurement of the quantity of arginine separated in each case.
Separation is performed by means of a filter plate membrane.
Radioactive arginine is used as the substrate in this HTS-NOS assay. Depending on the type of microtitre plate (MTP), the assay volume may be selected in the range between 25 μl and 250 μl. Depending on the enzyme source used, cofactors and coenzymes are added. The batches are incubated in this microtitre plate (assay MTP) according to step (a) at room temperature and, depending on the enzyme activity used (units), lasts between 5 and 60 minutes. On completion of incubation (step (a)), the plate is placed in a cell harvester, which is equipped with an MTP which has a cation exchange membrane as a filter bottom (filter MTP). All the batches from the assay MTP are transferred into this filter MTP and suction filtered through a cation exchange filter plate, a paper filter loaded with phosphate groups. The filter MTP is then washed with buffer or water. This procedure binds the remaining substrate arginine onto the cation exchanger, while the enzymatically formed radioactive citrulline is quantitatively eluted. Once the filter MTP has been dried and scintillation liquid added, the bound arginine can be counted in the scintillation counter. Low radioactivity indicates an uninhibited NOS reaction. An inhibited enzyme reaction means that the radioactive arginine has not been converted. This means that there is a high level of radioactivity on the filter.
• Arginine, L-[2,3,4-^3H]-monohydrochloride; item no. […] The pH value of the buffer was adjusted to 7.4 at 25° C. • Washing medium: H2O Enzyme Preparation
Rat cerebella were used as the starting tissue. The animals were stunned and killed, the brain tissue, the cerebellum, was dissected out, 1 ml of enzyme preparation buffer (4° C.) was added per cerebellum, and the tissue was disrupted for 1 min at 6000 rpm in a Polytron homogeniser. The mixture was then centrifuged at 4° C. for 15 min at 20,000 g, and the supernatant was then decanted off and frozen in portions at −80° C. (discarding the precipitate).
96-Well MTPs with a well capacity of ≦250 μl were used Pipetting sequence: see table 1:
Once the pipetting operation was complete, a lid was laid on top of this MTP (assay MTP). Incubation at 25° C. (room temperature (RT)) for 5-60 min, depending on the quantity and activity of the enzyme used.
The contents of the assay MTP were then transferred with the assistance of a 96 well cell harvester into a 96 well cation exchange MTP (filter MTP) and suction filtered. A single washing with […] of H2O (from a trough) was then performed.
The plate was then dried for 1 h at 60° C. in a drying cabinet. The bottom of the filter MTP was then carefully sealed from beneath with a “back seal”. 35 μl of scintillating material were then pipetted into each well. The top of the plate was also sealed with a “top seal”. After 1 hour's waiting time, the plate was assessed on the β-counter.

SMILES | inhibition at 10 µM
Cc1nc(NC2CC(C)(c3ccc(Oc4ccccc4)cc3)OC2=O)ccc1Br (centres unmarked) [Example 17, 3-(5-Bromo-6-methyl-pyridin-2-ylamino)-5-methyl-5-(4-phenoxy-phenyl)-dihydro-furan-2-one] | 43%
CC(C)(C)c1ccc(C2(C)CC(Nc3ncccc3[N+](=O)[O-])C(=O)O2)cc1 (centres unmarked) [Example 18, 5-(4-tert-Butyl-phenyl)-5-methyl-3-(3-nitro-pyridin-2-ylamino)-dihydro-furan-2-one] | 40%
CC1(c2ccc(Oc3ccccc3)cc2)CC(Nc2ncccc2OCc2ccccc2)C(=O)O1 (centres unmarked) [Example 19, 3-(3-Benzyloxy-pyridin-2-ylamino)-5-methyl-5-(4-phenoxy-phenyl)-dihydro-furan-2-one] | 40%
CC(C)(C)c1ccc(C2(C)CC(Nc3ncccc3OCc3ccccc3)C(=O)O2)cc1 (centres unmarked) [Example 20, 3-(3-Benzyloxy-pyridin-2-ylamino)-5-(4-tert-butyl-phenyl)-5-methyl-dihydro-furan-2-one] | 54%
Cc1cc(C)nc(NC2CC(C)(c3ccc(Oc4ccccc4)cc3)OC2=O)c1 (centres unmarked) [Example 21, 3-(4,6-Dimethyl-pyridin-2-ylamino)-5-methyl-5-(4-phenoxy-phenyl)-dihydro-furan-2-one] | 91%
Cc1cc(C)nc(NC2CC(C)(c3ccc(C(C)(C)C)cc3)OC2=O)c1 (centres unmarked) [Example 22, 5-(4-tert-Butyl-phenyl)-3-(4,6-dimethyl-pyridin-2-yl-amino)-5-methyl-dihydrofuran-2-one] | 44%
Cc1ccnc(NC2CC(C)(c3ccc(Oc4ccccc4)cc3)OC2=O)c1 (centres unmarked) [Example 23, 5-Methyl-3-(4-methyl-pyridin-2-ylamino)-5-(4-phenoxy-phenyl)-dihydro-furan-2-one] | 79%
Cc1ccnc(NC2CC(C)(c3ccc(C(C)(C)C)cc3)OC2=O)c1 (centres unmarked) [Example 24, 5-(4-tert-Butyl-phenyl)-5-methyl-3-(4-methyl-pyridin-2-ylamino)-dihydro-furan-2-one] | 84%
CC1(c2ccc(C#N)cc2)CC(Nc2ncc(Br)cc2[N+](=O)[O-])C(=O)O1 (centres unmarked) [Example 25, 4-[4-(5-Bromo-3-nitro-pyridin-2-ylamino)-2-methyl-5-oxo-tetrahydro-furan-2-yl]-benzonitrile] | 45%
CC1(c2ccc(C#N)cc2)CC(Nc2ncc(Br)cn2)C(=O)O1 (centres unmarked) [Example 26, 4-[4-(5-Bromo-pyrimidin-2-ylamino)-2-methyl-5-oxo-tetrahydro-furan-2-yl]-benzonitrile] | 43%
CCCc1cccc(NC2CC(C)(c3cc4ccccc4s3)OC2=O)n1 (centres unmarked) [Example 27, 5-Benzo[b]thiophen-2-yl-5-methyl-3-(6-propyl-pyridin-2-ylamino)-dihydro-furan-2-one] | 43%
Cc1cc(C)nc(NC2CC(C)(c3ccc(C(C)C)cc3)OC2=O)c1 (centres unmarked) [Example 28, 3-(4,6-Dimethyl-pyridin-2-ylamino)-5-(4-isopropyl-phenyl)-5-methyl-dihydro-furan-2-one] | 68%
Cc1cc(C)nc(NC2CC(C)(c3cc4ccccc4o3)OC2=O)c1 (centres unmarked) [Example 29, 5-Benzofuran-2-yl-3-(4,6-dimethyl-pyridin-2-ylamino)-5-methyl-dihydro-furan-2-one] | 40%
Cc1ccnc(NC2CC(C)(c3cc4ccccc4s3)OC2=O)c1 (centres unmarked) [Example 30, 5-Benzo[b]thiophen-2-yl-5-methyl-3-(4-methyl-pyridin-2-ylamino)-dihydro-furan-2-one] | 41%
Cc1ccnc(NC2CC(C)(c3cc4ccccc4o3)OC2=O)c1 (centres unmarked) [Example 31, 5-Benzofuran-2-yl-5-methyl-3-(4-methyl-pyridin-2-ylamino)-dihydro-furan-2-one] | 44%
CC1(c2ccc3c(c2)OCO3)CC(Nc2n[nH]cc2C#N)C(=O)O1 (centres unmarked) [Example 32, 3-(5-Benzo[1,3]dioxol-5-yl-5-methyl-2-oxo-tetrahydro-furan-3-ylamino)-1H-pyrazole-4-carbonitrile] | 41%
CCOC(=O)c1c[nH]nc1NC1CC(C)(c2ccc3c(c2)OCO3)OC1=O (centres unmarked) [Example 33, 3-(5-Benzo[1,3]dioxol-5-yl-5-methyl-2-oxo-tetrahydro-furan-3-ylamino)-1H-pyrazole-4-carboxylic acid ethyl ester] | 45%
CC1(c2ccc3c(c2)OCO3)CC(Nc2ncccc2[N+](=O)[O-])C(=O)O1 (centres unmarked) [Example 34, 5-Benzo[1,3]dioxol-5-yl-5-methyl-3-(3-nitro-pyridin-2-ylamino)-dihydro-furan-2-one] | 40%
Cc1cc(C)nc(NC2CC(C)(c3ccc4c(c3)CCCC4)OC2=O)c1 (centres unmarked) [Example 35, 3-(4,6-Dimethyl-pyridin-2-ylamino)-5-methyl-5-(5,6,7,8-tetrahydro-naphthalen-2-yl)-dihydro-furan-2-one] | 42%
Cc1cc(C)nc(NC2CC(C)(c3ccc4ccccc4c3)OC2=O)c1 (centres unmarked) [Example 36, 3-(4,6-Dimethyl-pyridin-2-ylamino)-5-methyl-5-naphthalen-2-yl-dihydro-furan-2-one] | 65%
Cc1ccnc(NC2CC(C)(c3ccc4c(c3)OCO4)OC2=O)c1 (centres unmarked) [Example 37, 5-Benzo[1,3]dioxol-5-yl-5-methyl-3-(4-methyl-pyridin-2-ylamino)-dihydro-furan-2-one] | 50%
Cc1ccnc(NC2CC(C)(c3ccc4c(c3)CCCC4)OC2=O)c1 (centres unmarked) [Example 38, 5-Methyl-3-(4-methyl-pyridin-2-ylamino)-5-(5,6,7,8-tetrahydro-naphthalen-2-yl)-dihydro-furan-2-one] | 55%
Cc1ccc(NC2CC(C)(c3ccc4c(c3)OCO4)OC2=O)nc1 (centres unmarked) [Example 39, 5-Benzo[1,3]dioxol-5-yl-5-methyl-3-(5-methyl-pyridin-2-ylamino)-dihydro-furan-2-one] | 44%
Cc1cccc(NC2CC(C)(c3ccc4c(c3)OCO4)OC2=O)n1 (centres unmarked) [Example 40, 5-Benzo[1,3]dioxol-5-yl-5-methyl-3-(6-methyl-pyridin-2-ylamino)-dihydro-furan-2-one] | 53%
CC1(c2ccc3c(c2)CCCC3)CC(Nc2ncc(Br)cc2[N+](=O)[O-])C(=O)O1 (centres unmarked) [Example 41, 3-(5-Bromo-3-nitro-pyridin-2-ylamino)-5-methyl-5-(5,6,7,8-tetrahydro-naphthalen-2-yl)-dihydro-furan-2-one] | 53%
CC(C)C1(c2ccccc2)CC(Nc2ncc(Br)cc2[N+](=O)[O-])C(=O)O1 (centres unmarked) [Example 42, 3-(5-Bromo-3-nitro-pyridin-2-ylamino)-5-isopropyl-5-phenyl-dihydro-furan-2-one] | 41%
CC(C)C1(c2ccccc2)CC(Nc2ccc([N+](=O)[O-])cn2)C(=O)O1 (centres unmarked) [Example 43, 5-Isopropyl-3-(5-nitro-pyridin-2-ylamino)-5-phenyl-dihydro-furan-2-one] | 45%
CC1(c2ccc3ccccc3c2)CC(Nc2ccc([N+](=O)[O-])cn2)C(=O)O1 (centres unmarked) [Example 44, 5-Methyl-5-naphthalen-2-yl-3-(5-nitro-pyridin-2-ylamino)-dihydro-furan-2-one] | 47%
CC(C)C1(c2ccccc2)CC(Nc2ncccn2)C(=O)O1 (centres unmarked) [Example 45, 5-Isopropyl-5-phenyl-3-(pyrimidin-2-ylamino)-dihydro-furan-2-one] | 58%
